Results published in ChEMBL document CHEMBL1149299, “Hemolytic effects of water-soluble fullerene derivatives” (J Med Chem, 2004).

Experiments:
Erythrocyte [1] = test: Hemolytic activity in human RBC at 80 uM; format: functional
[2] = Cytotoxicity against […] HepG2 cells by MTT assay; format: cell-based; settings: read-out: LD50 (the source's name)
[3] = Cytotoxicity against human MCF7 by MTT assay; format: cell-based; settings: MCF7 cells, read-out: LD50 (the source's name)
Erythrocyte [4] = test: Hemolytic activity in human RBC at 30 uM; format: functional
[5] = Cytotoxicity against pig LLC-PK1 cells by MTT assay; format: cell-based, Sus scrofa; settings: read-out: LD50 (the source's name)

SMILES | Activity (Erythrocyte [1]) | CC50 [2] | CC50 [3] | Activity (Erythrocyte [4]) | CC50 [5]
CCCCCCCCCCCCCCCCCC(=O)NCCOCCOCCN.Cl | 53% | > 80 µM | > 80 µM | 34% | > 80 µM
C[N+]1(CCOCCOCCN)CCCC1 |  | > 80 µM | > 80 µM |  | > 80 µM
